Results on 100 molecules are retold here after the SangsterLogP compilation.

Regarding `Clc1ccccc1Oc1ccc(Cl)c(Cl)c1Cl`, the logP stood at 5.72.

In turn, `Clc1ccc(Oc2c(Cl)c(Cl)cc(Cl)c2Cl)c(Cl)c1` registered a logP of 6.76.

`Clc1ccc(Cl)c(Oc2ccccc2)c1Cl` showed a logP of 5.35. The value for `Clc1ccc(Oc2ccccc2Cl)c(Cl)c1` was 4.96; that for `Clc1ccc(Oc2ccccc2)cc1` was 4.7; that for `Clc1ccc(Oc2c(Cl)cc(Cl)c(Cl)c2Cl)c(Cl)c1` was 6.84.

In turn, `Clc1ccc(Oc2ccccc2)c(Cl)c1Cl` showed a logP of 5.55.

For the molecule `Clc1ccc(Oc2ccc(Cl)c(Cl)c2Cl)c(Cl)c1Cl`, the logP was 6.82. Take `Clc1cc(Cl)c(Oc2cc(Cl)c(Cl)c(Cl)c2Cl)cc1Cl`: the logP stood at 7.46.

`Clc1ccc(Oc2cc(Cl)c(Cl)c(Cl)c2Cl)c(Cl)c1` came in with a logP of 6.72. The same measure for `Clc1cc(Cl)c(Oc2c(Cl)c(Cl)c(Cl)c(Cl)c2Cl)cc1Cl`: 7.81; for `Clc1ccc(Oc2ccccc2Cl)cc1Cl`: 5.5. The value for `Clc1cc(Cl)c(Oc2cc(Cl)c(Cl)c(Cl)c2Cl)c(Cl)c1` was 7.31. The same measure for `Clc1cc(Cl)c(Oc2ccccc2)c(Cl)c1`: 5.32; for `Clc1cccc(Oc2ccc(Cl)c(Cl)c2Cl)c1`: 6.07. As for `Clc1cc(Cl)c(Oc2cc(Cl)c(Cl)cc2Cl)cc1Cl`, the logP turned out to be 6.72.

Molecule `Clc1ccc(Oc2ccc(Cl)c(Cl)c2Cl)c(Cl)c1` had a logP of 6.28.

On to `Clc1ccc(Oc2ccc(Cl)c(Cl)c2Cl)cc1Cl`, for which the logP amounted to 6.51. The value for `Clc1cccc(Oc2ccccc2)c1` was 4.75.

`Clc1cccc(Cl)c1Oc1ccccc1` yielded a logP of 4.64. Molecule `Clc1cc(Cl)cc(Oc2ccc(Cl)cc2Cl)c1` gave a logP of 6.13. The value for `Clc1cccc(Oc2ccccc2)c1Cl` was 5. The value for `Clc1cc(Oc2c(Cl)c(Cl)cc(Cl)c2Cl)c(Cl)c(Cl)c1Cl` was 7.63. Regarding `Clc1cccc(Oc2ccc(Cl)cc2Cl)c1`, the logP turned out to be 5.65. `Clc1ccc(Oc2c(Cl)cccc2Cl)c(Cl)c1Cl` registered a logP of 6.11.

The molecule `Clc1cc(Cl)c(Oc2ccc(Cl)c(Cl)c2Cl)cc1Cl` showed a logP of 7.01. The same measure for `Clc1ccc(Oc2cc(Cl)c(Cl)c(Cl)c2)c(Cl)c1`: 6.63. The value for `Clc1ccc(Oc2c(Cl)cc(Cl)cc2Cl)cc1` was 5.92; that for `Clc1ccc(Oc2ccccc2Cl)cc1` was 5.03; that for `Clc1cc(Cl)c(Cl)c(Oc2ccc(Cl)c(Cl)c2)c1` was 6.52.

`Clc1cc(Cl)c(Oc2cccc(Cl)c2Cl)cc1Cl`: the logP amounted to 6.22.

The molecule `Clc1ccc(Oc2c(Cl)cccc2Cl)cc1Cl` displayed a logP of 5.7. The value for `Clc1ccc(Oc2c(Cl)ccc(Cl)c2Cl)cc1Cl` was 6.31; that for `Clc1cc(Oc2c(Cl)c(Cl)c(Cl)c(Cl)c2Cl)c(Cl)c(Cl)c1Cl` was 8.07.

The molecule `Clc1ccc(Oc2ccc(Cl)c(Cl)c2)c(Cl)c1` had a logP of 6.13. The same measure for `Clc1ccc(Cl)c(Oc2ccccc2)c1`: 5.13. In turn, `Clc1ccc(Oc2cc(Cl)c(Cl)cc2Cl)cc1Cl` registered a logP of 6.6.

In turn, `Clc1cc(Cl)c(Cl)c(Oc2ccccc2)c1Cl` showed a logP of 5.82. The same measure for `Clc1ccc(Oc2cc(Cl)c(Cl)c(Cl)c2Cl)cc1`: 6.61.

`Clc1ccc(Oc2cc(Cl)c(Cl)cc2Cl)c(Cl)c1` returned a logP of 6.38. Regarding `Clc1ccc(Cl)c(Oc2ccc(Cl)c(Cl)c2)c1`, the logP was determined as 6.11. The value for `Clc1ccc(Oc2c(Cl)c(Cl)cc(Cl)c2Cl)c(Cl)c1Cl` was 7.14; that for `Clc1ccc(Oc2ccccc2)cc1Cl` was 4.99. `Clc1ccc(Oc2cccc(Cl)c2)cc1`: the logP turned out to be 5.13. The value for `Clc1ccc(Oc2ccc(Cl)cc2Cl)cc1` was 5.53. On to `Clc1ccc(Oc2c(Cl)c(Cl)c(Cl)c(Cl)c2Cl)cc1Cl`, for which the logP turned out to be 7.31.

In the case of `Clc1cccc(Oc2ccc(Cl)c(Cl)c2Cl)c1Cl`, the logP was 6.3.

As for `Clc1cc(Cl)c(Cl)c(Oc2ccc(Cl)c(Cl)c2Cl)c1`, the lipophilicity (logP) turned out to be 7.01. The same measure for `Clc1ccc(Oc2c(Cl)ccc(Cl)c2Cl)c(Cl)c1Cl`: 6.65.

Consider `Clc1ccc(Oc2ccccc2)c(Cl)c1`, for which the logP was determined as 4.93.

For the molecule `Clc1cc(Cl)c(Cl)c(Oc2ccccc2)c1`, the logP is 5.62.

`Clc1ccc(Oc2ccc(Cl)c(Cl)c2)cc1Cl` returned a logP of 6.36. The value for `Clc1ccc(Oc2c(Cl)c(Cl)cc(Cl)c2Cl)cc1Cl` was 6.78.

The molecule `Clc1cccc(Oc2ccc(Cl)c(Cl)c2)c1` yielded a logP of 5.74. The same measure for `Clc1cc(Cl)c(Cl)c(Oc2cc(Cl)c(Cl)cc2Cl)c1`: 6.76; for `Clc1ccccc1Oc1ccccc1`: 4.45; for `Clc1ccc(Oc2cc(Cl)ccc2Cl)cc1`: 5.66. The same measure for `Clc1cc(Cl)c(Oc2cc(Cl)c(Cl)c(Cl)c2)cc1Cl`: 7.11; for `Clc1c(Cl)c(Cl)c(Oc2c(Cl)c(Cl)c(Cl)c(Cl)c2Cl)c(Cl)c1Cl`: 8.16; for `Clc1ccc(Oc2cc(Cl)c(Cl)c(Cl)c2)cc1Cl`: 6.83. `Clc1ccc(Oc2cc(Cl)c(Cl)c(Cl)c2)cc1` returned a logP of 6.3. For `Clc1ccc(Oc2c(Cl)c(Cl)c(Cl)c(Cl)c2Cl)cc1`, the logP amounted to 6.95. Molecule `Clc1ccc(Oc2c(Cl)cc(Cl)c(Cl)c2Cl)cc1Cl` yielded a logP of 7.07.

Turning to `Clc1ccc(Oc2cccc(Cl)c2Cl)cc1Cl`, the logP came out at 5.99. The same measure for `Clc1ccc(Oc2c(Cl)ccc(Cl)c2Cl)cc1`: 5.88; for `Clc1ccc(Oc2c(Cl)ccc(Cl)c2Cl)c(Cl)c1`: 6.06; for `Clc1ccc(Oc2cc(Cl)ccc2Cl)c(Cl)c1`: 5.78.

In turn, `Clc1cc(Oc2c(Cl)ccc(Cl)c2Cl)c(Cl)c(Cl)c1Cl` came in with a logP of 6.98.

Consider `Clc1ccc(Oc2cccc(Cl)c2Cl)cc1`, for which the logP came to 5.63. With `Clc1ccc(Oc2cc(Cl)c(Cl)cc2Cl)cc1`, the logP amounted to 5.99.

`Clc1cc(Cl)cc(Oc2ccccc2)c1` yielded a logP of 5.21. The same measure for `Clc1ccc(Oc2c(Cl)cc(Cl)cc2Cl)c(Cl)c1`: 6.11; for `Clc1cc(Cl)c(Oc2c(Cl)cccc2Cl)cc1Cl`: 5.98. For the molecule `Clc1cc(Oc2ccccc2)cc(Cl)c1Cl`, the logP was determined as 5.7.

Molecule `Clc1cc(Cl)cc(Oc2cc(Cl)c(Cl)cc2Cl)c1` came in with a logP of 6.66. The same measure for `Clc1ccc(Oc2c(Cl)cc(Cl)c(Cl)c2Cl)cc1`: 6.47. The same measure for `Clc1cccc(Oc2cc(Cl)c(Cl)cc2Cl)c1`: 6.14; for `Clc1cc(Oc2cc(Cl)c(Cl)c(Cl)c2Cl)cc(Cl)c1Cl`: 7.55; for `Clc1cc(Cl)c(Oc2c(Cl)ccc(Cl)c2Cl)cc1Cl`: 6.47. The same measure for `Clc1ccc(Oc2cccc(Cl)c2Cl)c(Cl)c1`: 5.88; for `Clc1cc(Cl)cc(Oc2ccc(Cl)c(Cl)c2)c1`: 6.22. The molecule `Clc1ccc(Oc2c(Cl)cccc2Cl)cc1` displayed a logP of 5.3. For `Clc1cc(Cl)c(Oc2ccc(Cl)c(Cl)c2)c(Cl)c1`, the logP was found to be 6.44. The same measure for `Clc1ccc(Cl)c(Oc2ccc(Cl)c(Cl)c2Cl)c1`: 6.51; for `Clc1ccc(Oc2cc(Cl)cc(Cl)c2Cl)cc1`: 6.21. The same measure for `Clc1ccc(Oc2c(Cl)c(Cl)cc(Cl)c2Cl)cc1`: 6.41. The value for `Clc1ccc(Oc2c(Cl)c(Cl)c(Cl)c(Cl)c2Cl)c(Cl)c1Cl` was 7.84; that for `Clc1cc(Oc2cc(Cl)c(Cl)c(Cl)c2Cl)c(Cl)c(Cl)c1Cl` was 7.78. `Clc1cc(Cl)cc(Oc2ccc(Cl)c(Cl)c2Cl)c1` displayed a logP of 6.58. The same measure for `Clc1ccc(Oc2cc(Cl)cc(Cl)c2)cc1`: 5.77; for `Clc1ccc(Oc2ccc(Cl)c(Cl)c2)cc1`: 5.88. In turn, `Clc1cc(Cl)c(Oc2ccccc2Cl)cc1Cl` yielded a logP of 5.97. Consider `Clc1cc(Cl)c(Oc2cc(Cl)c(Cl)cc2Cl)c(Cl)c1`, for which the logP was determined as 6.49. Consider `Clc1ccc(Oc2ccc(Cl)cc2)cc1`, for which the logP was 5.25. The molecule `Clc1cc(Oc2ccc(Cl)c(Cl)c2Cl)cc(Cl)c1Cl` yielded a logP of 6.99.

Molecule `Clc1ccc(Oc2ccc(Cl)c(Cl)c2Cl)cc1` yielded a logP of 6.14. Consider `Clc1ccc(Oc2cc(Cl)c(Cl)c(Cl)c2Cl)c(Cl)c1Cl`, for which the logP was determined as 7.28.

Consider `Clc1cc(Cl)c(Oc2c(Cl)c(Cl)cc(Cl)c2Cl)cc1Cl`, for which the logP amounted to 7.13. For `Clc1ccc(Cl)c(Oc2cc(Cl)c(Cl)cc2Cl)c1`, the logP came out at 6.22. The same measure for `Clc1ccc(Oc2ccc(Cl)cc2Cl)c(Cl)c1`: 5.95.
